Measured values as given in patent US20030215462A1, “Use of UGT inhibitors to increase bioavailability” (priority 2001, published 2003).
“And” between values parts separate entries of the source, which are not always exact repeats. Identical values can stand only once.

What follows are molecules tested on UGT enzymes of human liver microsomes (assay: Inhibition of raloxifene glucuronidation (G1, G2) in human liver microsomes). Details: G1; inhibitor 100 μM; raloxifene 50 μM, human liver microsomes 250 μg/ml, 15 min.
Assay type: biochemical
Description: Compounds were eluted using a binary solvent gradient system. […] Solvent B was methanol. […] Detection was at 280 nm.
In the case of CCCCC/C=C\C/C=C\CCCCCCCC(=O)O [Linoleic acid], the “% of control metabolism (SD, n = 3), raloxifene glucuronide G1” value is reported as 101 (8) %.
In the case of CCCCCCCCC(=O)NCc1ccc(O)c(OC)c1 [N-Vanillylnonanamide], the “% of control metabolism (SD, n = 3), raloxifene glucuronide G1” value is reported as 48 (1) %.

Same assay, conditions: G1; inhibitor 500 μM; raloxifene 50 μM, human liver microsomes 250 μg/ml, 15 min
With C[C@]12CC[C@@H]3c4ccc(O)cc4CC[C@H]3[C@@H]1CC[C@@H]2O [E2, 17-β-estradiol, reference compound] the “% of control metabolism (SD, n = 3), raloxifene glucuronide G1” value was 39 (1) %.
With CCCCC/C=C\C/C=C\CCCCCCCC(=O)O [Linoleic acid] the “% of control metabolism (SD, n = 3), raloxifene glucuronide G1” value was 29 (0) %.
With CCCCCCCCC(=O)NCc1ccc(O)c(OC)c1 [N-Vanillylnonanamide] the “% of control metabolism (SD, n = 3), raloxifene glucuronide G1” value was 14 (1) %.

Same assay, conditions: G2; inhibitor 100 μM; raloxifene 50 μM, human liver microsomes 250 μg/ml, 15 min
For CCCCC/C=C\C/C=C\CCCCCCCC(=O)O [Linoleic acid], the “% of control metabolism (SD, n = 3), raloxifene glucuronide G2” value was 100 (4) %.
With CCCCCCCCC(=O)NCc1ccc(O)c(OC)c1 [N-Vanillylnonanamide] the “% of control metabolism (SD, n = 3), raloxifene glucuronide G2” value was 62 (1) %.

Same assay, conditions: G2; inhibitor 500 μM; raloxifene 50 μM, human liver microsomes 250 μg/ml, 15 min
In the case of C[C@]12CC[C@@H]3c4ccc(O)cc4CC[C@H]3[C@@H]1CC[C@@H]2O [E2, 17-β-estradiol, reference compound], the “% of control metabolism (SD, n = 3), raloxifene glucuronide G2” value is reported as 56 (2) %.
In the case of CCCCCCCCC(=O)NCc1ccc(O)c(OC)c1 [N-Vanillylnonanamide], the “% of control metabolism (SD, n = 3), raloxifene glucuronide G2” value is reported as 17 (2) %.

What follows are molecules tested against T1, UGT enzymes of human liver microsomes (Homo sapiens, UniProt P16662) (assay: Inhibition of zidovudine glucuronidation in human liver microsomes). Details: liver lot 062101; inhibitor 50 μM.
T1 construct: residual metabolism (percentage of control), zidovudine glucuronidation; other: liver lot 062101; residual metabolism (percentage of control), zidovudine glucuronidation; residual metabolism (percentage of control)
T1 sequence (P16662 1-529): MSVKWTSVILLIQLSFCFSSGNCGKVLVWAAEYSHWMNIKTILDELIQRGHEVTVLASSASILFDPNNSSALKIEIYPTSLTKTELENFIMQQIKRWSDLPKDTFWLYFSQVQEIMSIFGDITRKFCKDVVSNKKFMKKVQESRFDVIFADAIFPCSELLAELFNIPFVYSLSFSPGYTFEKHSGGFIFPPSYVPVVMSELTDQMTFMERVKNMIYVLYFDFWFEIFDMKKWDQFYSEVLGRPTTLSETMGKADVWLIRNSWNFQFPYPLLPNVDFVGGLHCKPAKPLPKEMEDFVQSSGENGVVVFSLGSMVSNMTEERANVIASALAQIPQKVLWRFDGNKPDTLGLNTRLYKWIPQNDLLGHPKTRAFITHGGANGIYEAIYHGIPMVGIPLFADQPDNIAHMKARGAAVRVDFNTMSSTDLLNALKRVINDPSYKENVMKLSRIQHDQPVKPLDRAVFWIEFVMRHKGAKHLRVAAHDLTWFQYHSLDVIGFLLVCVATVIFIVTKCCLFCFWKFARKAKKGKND
Assay type: biochemical
Experimental: Compounds were eluted using a binary solvent gradient system where solvent A was dilute phosphoric acid (pH 3) and solvent B was acetonitrile.
Standardized incubations utilized 500 μM zidovudine substrate, 1 mg/ml microsomal protein, 5 mM UDPGA and a 30 min incubation time. […] Int.
For C[C@]12CC[C@@H]3c4ccc(O)cc4CC[C@H]3[C@@H]1CC[C@@H]2O [E2, 17-β-estradiol, reference compound], the “residual metabolism (percentage of control), zidovudine glucuronidation” value was 50 (1) %.

Same assay, conditions: liver lot 062101; inhibitor 100 μM
In the case of C[C@]12CC[C@@H]3c4ccc(O)cc4CC[C@H]3[C@@H]1CC[C@@H]2O [E2, 17-β-estradiol, reference compound], the “residual metabolism (percentage of control), zidovudine glucuronidation” value is reported as 28 (1) %.

Same assay, conditions: liver lot 062101; inhibitor 200 μM
In the case of C[C@]12CC[C@@H]3c4ccc(O)cc4CC[C@H]3[C@@H]1CC[C@@H]2O [E2, 17-β-estradiol, reference compound], the “residual metabolism (percentage of control), zidovudine glucuronidation” value is reported as 24 (0) %.

Same assay, conditions: liver lot 062101; inhibitor 500 μM
For C[C@]12CC[C@@H]3c4ccc(O)cc4CC[C@H]3[C@@H]1CC[C@@H]2O [E2, 17-β-estradiol, reference compound], the “residual metabolism (percentage of control), zidovudine glucuronidation” value was 29 (1) % and 24 (2) %.
With C=CC(C)(O)CCC=C(C)C (stereo not drawn) [Linalool] the “residual metabolism (percentage of control), zidovudine glucuronidation” value was 73 (5) %.
CCCCC/C=C\C/C=C\CCCCCCCC(=O)O [Linoleic acid] was tested, and the “residual metabolism (percentage of control), zidovudine glucuronidation” value was 68 (5) %.
For CCCCCCCCC(=O)NCc1ccc(O)c(OC)c1 [N-Vanillylnonanamide], the “residual metabolism (percentage of control), zidovudine glucuronidation” value was 67 (1) %.
CC1=C(/C=C/C(C)=C/C=C/C(C)=C/CO)C(C)(C)CCC1 [Retinol] was tested, and the “residual metabolism (percentage of control), zidovudine glucuronidation” value was 76 (2) %.
With COc1cc(CO)ccc1O [Vanillyl alcohol] the “residual metabolism (percentage of control), zidovudine glucuronidation” value was 95 (5) %.

Same assay, conditions: liver lot 062101; inhibitor 1000 μM
CCCCCCCCC(=O)NCc1ccc(O)c(OC)c1 [N-Vanillylnonanamide] was tested, and the “residual metabolism (percentage of control), zidovudine glucuronidation” value was 40 (1) %.

These molecules were tested on T2, UGT enzymes of human liver microsomes (assay: Inhibition of 7-HFC glucuronidation in human liver microsomes). Details: inhibitor 100 μM.
T2 construct: percentage of control metabolism, 7-HFC glucuronidation; percentage of control metabolism, 7-HFC glucuronidation
Assay type: biochemical
With CCCCC/C=C\C/C=C\CCCCCCCC(=O)O [Linoleic acid] the “percentage of control metabolism, 7-HFC glucuronidation” value (“percentage of control metabolism” below) was 86 (3) %.
In the case of CCCCCCCCC(=O)NCc1ccc(O)c(OC)c1 [N-Vanillylnonanamide], the “percentage of control metabolism” value is reported as 69 (1) %.
With CC1=C(/C=C/C(C)=C/C=C/C(C)=C/CO)C(C)(C)CCC1 [Retinol] the “percentage of control metabolism” value was 59 (1) %.

Same assay, conditions: inhibitor 100 μM; 7-HFC 50 μM, human liver microsomes 100 μg/ml, 15 min
For CCCCC/C=C\C/C=C\CCCCCCCC(=O)O [Linoleic acid], the “% of control metabolism (SD, n = 3), 7-HFC glucuronidation” value was 86 (3) %.
CCCCCCCCC(=O)NCc1ccc(O)c(OC)c1 [N-Vanillylnonanamide] was tested, and the “% of control metabolism (SD, n = 3), 7-HFC glucuronidation” value was 69 (1) %.
With CC1=C(/C=C/C(C)=C/C=C/C(C)=C/CO)C(C)(C)CCC1 [Retinol] the “% of control metabolism (SD, n = 3), 7-HFC glucuronidation” value was 59 (1) %.
In the case of COc1cc(CO)ccc1O [Vanillyl alcohol], the “% of control metabolism (SD, n = 3), 7-HFC glucuronidation” value is reported as 79 (1) %.

Same assay, conditions: inhibitor 200 μM
For CCCCC/C=C\C/C=C\CCCCCCCC(=O)O [Linoleic acid], the “percentage of control metabolism” value was 77 (4) %.
For CCCCCCCCC(=O)NCc1ccc(O)c(OC)c1 [N-Vanillylnonanamide], the “percentage of control metabolism” value was 63 (2) %.
For CC1=C(/C=C/C(C)=C/C=C/C(C)=C/CO)C(C)(C)CCC1 [Retinol], the “percentage of control metabolism” value was 39 (1) %.

Same assay, conditions: inhibitor 200 μM; 7-HFC 50 μM, human liver microsomes 100 μg/ml, 15 min
In the case of CCCCC/C=C\C/C=C\CCCCCCCC(=O)O [Linoleic acid], the “% of control metabolism (SD, n = 3), 7-HFC glucuronidation” value is reported as 77 (4) %.
With CCCCCCCCC(=O)NCc1ccc(O)c(OC)c1 [N-Vanillylnonanamide] the “% of control metabolism (SD, n = 3), 7-HFC glucuronidation” value was 63 (2) %.
In the case of CC1=C(/C=C/C(C)=C/C=C/C(C)=C/CO)C(C)(C)CCC1 [Retinol], the “% of control metabolism (SD, n = 3), 7-HFC glucuronidation” value is reported as 39 (1) %.
COc1cc(CO)ccc1O [Vanillyl alcohol] was tested, and the “% of control metabolism (SD, n = 3), 7-HFC glucuronidation” value was 67 (3) %.

Same assay, conditions: inhibitor 500 μM
For CCCCC/C=C\C/C=C\CCCCCCCC(=O)O [Linoleic acid], the “percentage of control metabolism” value was 33 (1) %.
In the case of CCCCCCCCC(=O)NCc1ccc(O)c(OC)c1 [N-Vanillylnonanamide], the “percentage of control metabolism” value is reported as 48 (1) %.
With CC1=C(/C=C/C(C)=C/C=C/C(C)=C/CO)C(C)(C)CCC1 [Retinol] the “percentage of control metabolism” value was 25 (1) %.

Same assay, conditions: inhibitor 500 μM; 7-HFC 50 μM, human liver microsomes 100 μg/ml, 15 min
With C[C@]12CC[C@@H]3c4ccc(O)cc4CC[C@H]3[C@@H]1CC[C@@H]2O [E2, 17-β-estradiol, reference compound] the “% of control metabolism (SD, n = 3), 7-HFC glucuronidation” value was 80 (2) %.
For C=CC(C)(O)CCC=C(C)C (stereo not drawn) [Linalool], the “% of control metabolism (SD, n = 3), 7-HFC glucuronidation” value was 86 (2) %.
CCCCC/C=C\C/C=C\CCCCCCCC(=O)O [Linoleic acid] was tested, and the “% of control metabolism (SD, n = 3), 7-HFC glucuronidation” value was 33 (1) %.
CCCCCCCCC(=O)NCc1ccc(O)c(OC)c1 [N-Vanillylnonanamide] was tested, and the “% of control metabolism (SD, n = 3), 7-HFC glucuronidation” value was 48 (1) %.
With CC1=C(/C=C/C(C)=C/C=C/C(C)=C/CO)C(C)(C)CCC1 [Retinol] the “% of control metabolism (SD, n = 3), 7-HFC glucuronidation” value was 25 (1) %.
COc1cc(CO)ccc1O [Vanillyl alcohol] was tested, and the “% of control metabolism (SD, n = 3), 7-HFC glucuronidation” value was 42 (0), % and 42 (0) %.
